Laboratory results: US20080027088A1, “Imidazole-Based Hmg-Coa Reductase Inhibitors” (Warner-Lambert Company, LLC, priority 2004, published 2008)

Experiments:
[1] = system: ApoE KO mice fed a Western diet; test: Plasma lipoprotein cholesterol distribution by FPLC, 12 weeks; type: in vivo; details: 0.3 mg/kg/day
Method: Animal experiments—Male C57BI/6J and ApoE KO mice on C57BI/6J background were obtained from the Jackson Laboratory (Bar Harbor, Me.) or Taconic (Germantown, N.Y.) (Plaque formation in ApoE KO mice is lipid-driven (A. S. Plump et al., Cell. 1992;71 (2):343-53)). Myriocin was mixed with Western diet containing 0.21% cholesterol and 21% fat. 8-12-week-old mice received 0.3 mg myriocin/kg/day for 12 weeks (Table 1). 10-12 week-old ApoE KO mice (n=8) were pre-fed a western diet for 2 weeks and mice received various concentrations of myriocin for 4 weeks in diet admix. Control groups consisted of ApoE KO mice fed normal chow or Western diet without myriocin, and normal chow-fed C57BI/6J mice. Body weight and chow feeding was measured every week to examine the food consumption. For the femoral artery cuff model, 8-10 week-old male ApoE KO mice were anethetized and the right femoral artery was dissected from its surroundings. A nonconstrictive polyethylene cuff (Portex, 0.40-mm inner diameter, 0.80-mm outer diameter, and 1.5-mm length) was placed looselyaround the right femoral artery.
Plasma lipids and serum amyloid A measurement—Mice were sacrificed by CO2 inhalation and blood was collected through cardiac puncture. Plasma concentrations of total cholesterol and triglyceride were determined enzymatically on a Cobas Mira Plus auto-analyzer using Cholesterol R1 and Triglycerides Reagent methods, respectively (Roche Diagnostics, Indiana, USA). Colormetric changes were measured at 500 nm. Lipoproteins were separated from mouse plasma by fast-protein liquid chromatography utilizing a Superose 6HR column. Cholesterol distribution among lipoproteins was determined by in-line post column analysis (K. A. Kieft, T. M. Bocan and B. R. Krause, J. Lipid Res. 1991; 32:859-66). Serum Amyloid A (SAA) protein in plasma was measured by ELISA according to the manufacturer's instructions (Biosource).
FIG. 6. Plasma Lipoprotein Distribution of ApoE KO Mice Fed a Western Diet. After 12 weeks of diet admix myriocin treatment (0.3 mg/kg/day), mice were sacrificed and plasma was isolated for lipoprotein composition. βVLDL (A), LDL (B) and HDL (C) Lipoproteins were separated from mouse plasma by fast-protein liquid chromatography (FPLC) utilizing a Superose 6HR column. Cholesterol distribution among lipoproteins was determined by in-line post column analysis (Kieft, K. A., T. M. A. Bocan, B. R. Krause, J. Lipid Res. 1991, 32:859-866.). The values reported are mean±SEM (n=5, *P<0.01, Western diet vs other study groups; n=5, #P<0.05, Western diet plus myriocin vs normal chow).

[2] = system: ApoE KO mice fed a Western diet; test: Sphingomyelin in liver, plasma and aorta by LC/MS, 12 weeks; type: in vivo; details: 0.3 mg/kg/day
From the text: Analysis of Sphingolipids and Phospholipids by LC/MS and HPLC-Total lipids were extracted by the modified method of Bligh-Dyer extraction (E. G. Bligh and W. J. Dyer, Can. J. Med. Sci. 1959;37:911-917; and D. K. Perry, A. Bielawska and Y. A. Hannun, Methods Enzymol. 2000;312:22-31). A Micromass (Waters Corp., Milford, Mass.) Quattro Ultima tandem quadrupole mass spectrometer with a standard Z-sprayTM ion source, set to electrospray positive ionization mode, with MassLynxTM version 3.5 operating software, was used for all quantitative determinations. Source conditions were typically as follows: capillary 3.5 kV, source temperature 110 degrees C., and desolvation temperature 325 degrees C. Multipliers were set to 650 V, and the dwell time for each analyte was 100 milliseconds. Precursor-to-product ion transitions were established through direct infusion of each compound into the mass spectrometer. The following ion transitions were used for quantification: sphingomyelin (704→184 m/z), sphinganine (302→284 m/z), ceramide (566→264 m/z) and psychosine (462→282 m/z) as an internal standard. For the instrument, at a collision cell pressure of 2×10^-3 mbar argon, cone and collision voltages were as follows: sphingomyelin (45V, 25 eV), sphinganine (45V, 15 eV), ceramide (45V, 25 eV) and psychosine (45V, 25 eV). The liquid chromatography system was composed of twin Shimadzu (Columbia, Md.) LC-10ADvp HPLC pumps with a SCL-10Avp controller (flow rate 0.2 mL/minute), and a LEAP Technologies (Carrboro, N.C.) CTC PAL autosampler. For the quantitative method, the analytical column was a Phenomenex (Torrance, Calif.) Polar-RP (2.0×150 mm, 4 μm) with a […] (Torrance, Calif.) MetaGuard Polaris C8 2.0 mm direct connect (5 μm) guard column. […] Lipid extracts were analyzed by HPLC and evaporative light scattering detector to determine plasma sphingomyelin and phosphatidylcholine (PC) levels (R. Homan and M.K. Anderson, J. Chromatogr. B. Biomed. Sci. Appl. 1998;708:21-6). […] Sphingomyelin levels in liver (A), plasma (B), and aorta (C) were determined by LC/MS. […]

[3] = vs Western diet-fed ApoE KO mice

CCCCCCC(=O)CCCCCC/C=C/C[C@@H](O)[C@H](O)[C@@](N)(CO)C(=O)O [myriocin]
plasma apoB levels ([1]; comparable to standard chow-fed group): lowered
HDL-cholesterol content increased [1, 3]: 54%
LDL-cholesterol lowered [1, 3]: 35%
βVLDL-cholesterol lowered [1, 3]: 51%
aorta SM levels decreased [2]: 20%
plasma SM lowered ([2]; Western diet-fed ApoE KO mice): 64%
SM accumulation in liver [2, 3]: lowered
